# According to PMC8825254, “Rational design of Striga hermonthica-specific seed germination inhibitors” (Plant Physiology, 2021):
# Legend:
# [1] = system: ShHTL7–ShMAX2-CTH interaction; assay: GST pull-down of His-ShHTL7 by CTH of ShMAX2; format: binding, Striga hermonthica; details: 100 µM compound, 100 µM GR24; result in words
# Experimental: Purified GST-CTH of ShMAX2 and GST were bound to the Glutathione Sepharose 4B Beads (GE healthcare). Purified 6× His-ShHTL7 was incubated with 100 μM KK023-N1 and Triton X-100 for 3 h, separately. Then apo ShHTL7 was added to the beads bound by GST-CTH of ShMAX2 in the presence and absence of 100 μM GR24. Similarly, ShHTL7 incubated with KK023-N1 and Triton X-100 were added to the beads bound by GST-CTH of ShMAX2 in the presence of 100 μM GR24. Apo ShHTL7 was added to the beads bound by GST only in the presence of 100 μM GR24 as a control. All the samples were washed with lysis buffer (50-mM Tris–HCl pH 8.0, 200 mM NaCl, 2 mM DTT) three times and then eluted with addition of 20 mM reduced glutathione. Thus, the eluted protein was subjected to Western blot using an antibody specific to 6XHis (Abcam, Cambridge, UK).
# OsD14 = target: T1, OsD14 (Oryza sativa subsp. japonica, UniProt Q10QA5); assay: YLG hydrolysis competition assay with OsD14; format: biochemical, rice (Oryza sativa); details: Figure 3D-F; mean ± SD, n = 3; no unit printed with values (x-axis µM); read-out: IC50, OsD14-mediated YLG hydrolysis (Figure 3)
# T1 construct: made in house; host or cells: Escherichia coli BL21 (DE3)
# T1 sequence (Q10QA5 1-318): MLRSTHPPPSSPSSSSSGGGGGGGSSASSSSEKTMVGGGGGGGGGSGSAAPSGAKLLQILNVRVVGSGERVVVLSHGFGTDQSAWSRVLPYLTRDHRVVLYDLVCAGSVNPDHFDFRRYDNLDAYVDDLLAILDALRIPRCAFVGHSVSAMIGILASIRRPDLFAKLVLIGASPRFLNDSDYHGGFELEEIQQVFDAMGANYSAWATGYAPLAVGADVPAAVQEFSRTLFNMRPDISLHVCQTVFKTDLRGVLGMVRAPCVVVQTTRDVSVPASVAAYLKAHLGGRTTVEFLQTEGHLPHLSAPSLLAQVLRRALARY
# ShHTL7 [2] = target: T2, ShHTL7 (Striga hermonthica, UniProt A0A0M3PNA2); assay: DSF thermal stability of ShHTL7; format: binding; details: 0 to 100 µM; result in words
# T2 sequence (A0A0M3PNA2 1-271): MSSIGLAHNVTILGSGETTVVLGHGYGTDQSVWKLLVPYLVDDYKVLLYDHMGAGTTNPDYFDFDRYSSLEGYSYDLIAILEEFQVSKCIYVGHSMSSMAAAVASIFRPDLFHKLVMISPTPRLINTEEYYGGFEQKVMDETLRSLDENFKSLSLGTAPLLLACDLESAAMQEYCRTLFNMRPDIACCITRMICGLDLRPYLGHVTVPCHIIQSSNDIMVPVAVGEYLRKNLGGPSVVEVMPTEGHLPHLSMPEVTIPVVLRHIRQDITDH
# Experimental: About 10 µM of ShHTL7 purified protein was incubated with various concentrations of KK023-N1, Triton X-100, or KK094 (ranging from 0 to 100 µM) for 30 min. Then SYPRO Orange (reporter dye) was added to 1× final concentration. The reactions were carried out in 25 µL 1× PBs buffer. The assay was performed on CFX96 Real-Time System (BIO-RAD, Hercules, CA, USA) thermal cycler on 96-well quantitative polymerase chain reaction (qPCR) white plate, and the plate was sealed with adhesive qPCR plate seal to prevent samples evaporation ([Bai et al., 2019]). First, samples were heated to 25°C for 1 min followed by linear increase in the temperature ramp from 25°C to 99°C at a rate of 0.5°C/15 s. The change in the protein folding was monitored by the changes in the fluorescence of the reporter dye, and the data were analyzed by the machine software that plots the inflection point of fluorescence against temperature. Data were exported into Excel, and replicates were averaged to generate the graph.
# ShHTL5 = ShHTL5 (Striga hermonthica, UniProt A0A0M5I297); assay: YLG hydrolysis competition assay with ShHTL5; format: biochemical
# Chain of ShHTL5 (A0A0M5I297 entry or part of it): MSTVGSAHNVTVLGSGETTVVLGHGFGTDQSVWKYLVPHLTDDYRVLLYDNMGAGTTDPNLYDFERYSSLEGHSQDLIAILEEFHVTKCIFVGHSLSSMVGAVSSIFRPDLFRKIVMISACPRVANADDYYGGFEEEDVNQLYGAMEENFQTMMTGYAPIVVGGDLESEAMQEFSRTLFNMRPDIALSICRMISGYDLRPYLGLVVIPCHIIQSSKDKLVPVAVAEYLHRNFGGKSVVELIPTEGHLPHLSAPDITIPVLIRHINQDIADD
# [3] = system: Rice WT (cv Nipponbare) seedlings; assay: Rice micro tillering assay, WT, hydroponics; format: in vivo, rice (Oryza sativa); details: 10, 50 and 100 µM, 2 weeks, result in words
# Experimental: (§1) Rice seeds of WT (cv Nipponbare) or SL-deficient mutant (d17), were surface sterilized with 2.5% NaClO and 0.05% of Tween-20 for 10 min, and rinsed 6 times with sterilized MilliQ water. About 30 seeds were placed on sterilized Magenta GA-7 plant culture box containing 0.5% MS medium with 0.4% agar and incubated at 30°C in dark. After 2 d, boxes were moved to a growth chamber and allowed to grow for another 5 d under fluorescent white light (130–180 μM m^−2 s^−1). Equally grown seedlings were transplanted in 50-mL black tubes filled with Hoagland nutrient solution (1 seedling/tube). Seedlings were treated with 10, 50, and 100 µM of each compound (KK023-N1, Triton X-100, and KK094). The compounds were applied twice a week for 2 weeks to test their effects on the growth of WT plants. SL-deficient seedlings (d17) were treated as WT but with the addition of 1 µM GR24. Number of tillers per plant, plant height, and dry biomass were measured at final harvest.
# ShHTL7 [4] = target: T2, ShHTL7; assay: YLG hydrolysis competition assay with ShHTL7; format: biochemical
# Experimental: About 0.33 µM of ShHTL7 protein was used to conduct in vitro hydrolysis of YLG (1 µM) as a substrate in a total volume of 100 µL of phosphate-buffered saline (1× PBS) containing 0.1% DMSO in 96-well black plate (Greiner Kremsmünster, Austria; [Tsuchiya et al., 2015]). The hydrolysis of YLG over time and changes in the fluorescence intensity was measured by SpectraMax i3 (Molecular Devices, San Jose, CA, USA) using an excitation wavelength of 480 nm and detection wavelength of 520 nm and recorded at 10 min intervals for 2 h. YLG in 1× PBS without protein was used as a control. […] Measurement of the fluorescence was conducted in SpectraMax i3 (Molecular Devices) using the above-mentioned method. The relative fluorescence unit was calculated by subtracting the auto-fluorescence of YLG in the buffer from the fluorescence values of YLG in the presence of a protein. The inhibitory curve and IC50 were determined using https://www.aatbio.com/tools/ic50-calculator website.
# Rice d17 seedlings = assay: Rice micro tillering assay, SL-deficient mutant d17 with GR24; format: in vivo, rice (Oryza sativa); details: compound with 1.0 µM GR24; result in words
# Experimental: as §1
smiles,measurement,setting,value
COc1ccc(CCCc2cccc3c2CCN3C(=O)n2ccnn2)cc1 [KK023-N1],Effect on GR24-dependent pull-down of His-ShHTL7 by GST-CTH of ShMAX2,[1],could inhibit such interaction
same,IC50,OsD14,29.6 ± 3.77 µM
same,Effect on SYPRO orange fluorescence peak of ShHTL7,ShHTL7 [2],decreased the fluorescence of the SYPRO orange
same,Effect on melting temperature of ShHTL7,ShHTL7 [2],did not affect the melting temperature
same,inhibition at 50 µM,"ShHTL5; 1 h, 50 µM compound, read-out: Reduction of ShHTL5 hydrolysis activity",20%
same,IC50,"ShHTL5; read-out: IC50, ShHTL5-mediated YLG hydrolysis",> 50 µM
same,Effect on YLG hydrolysis by ShHTL5,ShHTL5; result in words,did not influence the YLG hydrolysis
same,Effect on dry biomass of WT rice,[3],except at 100 µM concentration that led to a reduction in biomass
same,Effect on plant height of WT rice,[3],did not observe any significant negative impact
same,Effect on tillering of WT rice,[3],did not observe any significant negative impact
same,IC50,ShHTL7 [4],1.78 µM
same,Effect on GR24 action on tillering of d17 rice,Rice d17 seedlings,did not block the GR24 effect on rice tillers
